Assay results from US7396837B2, “Antitumoral analogs of lamellarins” (Pharma Mar, S.A.U., priority 2002, dated 2008).
Read-outs that look alike come from different tables or passages of the source.

Tests used:
Format in all cases: cell-based
DU-145 = assay: SRB colorimetric cell growth inhibition assay, DU-145; conditions: for TGI DU-145: total growth inhibition (cytostatic effect); for GI50: GI=growth inhibition, read-out: GI50 DU-145
Procedure, shortened: (§1)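 Growth inhibition (GI), cytostatic total growth inhibition (TGI) and cytotoxic cell-kill (LC) parameters were calculated from SRB-stained cultures held under constant compound exposure, triplicates averaged.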

LoVo = assay: SRB colorimetric cell growth inhibition assay, LoVo; conditions: Homo sapiens, LoVo; for CC50: read-out: LC50 LOVO, LOVO, LC=cell killing (cytotoxic effect); for GI50: GI=growth inhibition, read-out: GI50 LOVO; for IC (TGI): TGI=total growth inhibition (cytostatic effect), read-out: TGI LOVO
Procedure, shortened: as §1

K-562 = assay: SRB colorimetric cell growth inhibition assay, K-562; conditions: for GI50: GI=growth inhibition, read-out: GI50 K-562; for IC (TGI): TGI=total growth inhibition (cytostatic effect), read-out: TGI K-562; for CC50: K562, read-out: LC50 K-562, K-562, LC=cell killing (cytotoxic effect)
Procedure, shortened: as §1

LoVo-Dox = assay: SRB colorimetric cell growth inhibition assay, LoVo-Dox (MDR); conditions: Homo sapiens; for GI50 / IC (TGI): LOVO-DOX; for GI50: GI=growth inhibition, read-out: GI50 LOVO-DOX; for IC (TGI): TGI=total growth inhibition (cytostatic effect), read-out: TGI LOVO-DOX; for CC50: read-out: LC50 LOVO-DOX, LOVO-DOX, LC=cell killing (cytotoxic effect)
Procedure, shortened: as §1

A-549 = assay: SRB colorimetric cell growth inhibition assay, A-549; conditions: for GI50: GI=growth inhibition, read-out: GI50 A-549; for IC (TGI): TGI=total growth inhibition (cytostatic effect), read-out: TGI A-549; for CC50: A549, read-out: LC50 A-549, A-549, LC=cell killing (cytotoxic effect)
Procedure, shortened: as §1

SKOV-3 = assay: SRB colorimetric cell growth inhibition assay, SKOV-3; conditions: Homo sapiens; for GI50: SK-OV-3, SKOV-3, GI=growth inhibition, read-out: GI50 SKOV-3; for LC50 (concentration causing 50% net cell killing): SK-OV-3, read-out: LC50 SKOV-3; for IC (TGI): SK-OV-3, SKOV-3, total growth inhibition (cytostatic effect), read-out: TGI SKOV-3
Procedure, shortened: (§2)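 Sulforhodamine B colorimetric assay of cell growth and viability, mean ± SD of triplicate wells. Parameters derived: GI (growth inhibition), TGI (total growth inhibition, cytostatic) and LC (cell killing, cytotoxic).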

IGROV = assay: SRB colorimetric cell growth inhibition assay, IGROV; conditions: for GI50: GI=growth inhibition, read-out: GI50 IGROV
Procedure, shortened: as §1

HT-29 = assay: SRB colorimetric cell growth inhibition assay, HT-29; conditions: for GI50: HT-29, GI=growth inhibition, read-out: GI50 HT-29; for IC (TGI) / CC50: Homo sapiens; for IC (TGI): HT-29, HT-29, TGI=total growth inhibition (cytostatic effect), read-out: TGI HT-29; for CC50: HT-29, read-out: LC50 HT-29, HT-29, LC=cell killing (cytotoxic effect)
Procedure, shortened: as §1

LNCaP = assay: SRB colorimetric cell growth inhibition assay, LNCaP; conditions: Homo sapiens, LNCaP; for GI50 / IC (TGI): LN-caP; for GI50: GI=growth inhibition, read-out: GI50 LN-caP; for IC (TGI): total growth inhibition (cytostatic effect), read-out: TGI LN-caP; for CC50: read-out: LC50 LN-caP, LN-caP, cell killing (cytotoxic effect)
Procedure, shortened: as §1

PANC-1 = assay: SRB colorimetric cell growth inhibition assay, PANC-1; conditions: for IC (TGI): TGI=total growth inhibition (cytostatic effect), read-out: TGI PANC-1; for CC50: PANC-1, read-out: LC50 PANC-1, PANC-1, LC=cell killing (cytotoxic effect); for GI50: GI=growth inhibition, read-out: GI50 PANC-1
Procedure, shortened: as §1

SK-MEL-28 = assay: SRB colorimetric cell growth inhibition assay, SK-MEL-28; conditions: for IC (TGI): SK-MEL-28, MEL-28, total growth inhibition (cytostatic effect), read-out: TGI MEL-28; for GI50: MEL-28, GI=growth inhibition, read-out: GI50 MEL-28
Procedure, shortened: as §1

[1] = SRB colorimetric cell growth inhibition assay, H-MEC-1; conditions: human
Procedure, shortened: as §2

H-MEC-1 = assay: as above; conditions: Homo sapiens, HMEC-1, H-MEC-1; for GI50: GI=growth inhibition, read-out: GI50 H-MEC-1; for IC (TGI): total growth inhibition (cytostatic effect), read-out: TGI H-MEC-1
Procedure, shortened: as §2

SK-BR-3 = assay: SRB colorimetric cell growth inhibition assay, SK-BR-3; conditions: for IC (TGI) / CC50: Homo sapiens; for IC (TGI): SK-BR-3, SK-BR-3, total growth inhibition (cytostatic effect), read-out: TGI SK-BR-3; for CC50: SK-BR-3, read-out: LC50 SK-BR-3, SK-BR-3, cell killing (cytotoxic effect); for GI50: SK-BR-3, GI=growth inhibition, read-out: GI50 SK-BR-3
Procedure, shortened: as §1

IGROV-ET = assay: SRB colorimetric cell growth inhibition assay, IGROV-ET (ET-743 resistant); conditions: Homo sapiens; for GI50 / IC (TGI): IGROV-ET; for GI50: GI=growth inhibition, read-out: GI50 IGROV-ET; for IC (TGI): total growth inhibition (cytostatic effect), read-out: TGI IGROV-ET; for CC50: read-out: LC50 IGROV-ET, IGROV-ET, cell killing (cytotoxic effect)
Procedure, shortened: as §1

Structure (SMILES): COc1cc(-c2c3c4cc(OC)c(OC(=O)[C@@H](N)C(C)C)cc4oc(=O)c3n3ccc4c(OC(=O)[C@@H](N)C(C)C)c(OC)c(OC)cc4c23)ccc1OC(=O)[C@@H](N)C(C)C [Compound 35]
- TGI DU-145 (DU-145; DU-145): 8.81E−08 Molar
- GI50 (DU-145; Homo sapiens, DU-145, DU-145): 0.0321 µM
- CC50 (DU-145; human): 0.576 µM
- CC50 (LoVo): 2.6 µM
- GI50 (LoVo): 0.207 µM
- IC (TGI) (LoVo): 0.705 µM
- GI50 (K-562; Homo sapiens, K562, K-562): 0.0808 µM
- IC (TGI) (K-562; Homo sapiens, K562, K-562): 0.975 µM
- CC50 (K-562; Homo sapiens): 4.82 µM
- GI50 (LoVo-Dox): 0.217 µM
- IC (TGI) (LoVo-Dox): 0.737 µM
- CC50 (LoVo-Dox): 2.8 µM
- GI50 (A-549; A-549): 0.0524 µM
- IC (TGI) (A-549; Homo sapiens, A549, A-549): 0.259 µM
- CC50 (A-549; Homo sapiens): 6.09 µM
- GI50 (SKOV-3): 0.113 µM
- LC50 (concentration causing 50% net cell killing) (SKOV-3): 3.83 µM
- IC (TGI) (SKOV-3): 0.932 µM
- GI50 (IGROV; Homo sapiens, IGROV): 0.152 µM
- IC (TGI) (IGROV; Homo sapiens, IGROV, total growth inhibition (cytostatic effect), read-out: TGI IGROV): 0.907 µM
- CC50 (IGROV; human): 4.05 µM
- GI50 (HT-29): 1.18 µM
- IC (TGI) (HT-29): 2.44 µM
- CC50 (HT-29): 5.06 µM
- GI50 (LNCaP): 0.0881 µM
- IC (TGI) (LNCaP): 0.468 µM
- CC50 (LNCaP): 2.22 µM
- IC (TGI) (PANC-1; Homo sapiens, PANC-1, PANC-1): 1.21 µM
- CC50 (PANC-1; Homo sapiens): 3.67 µM
- GI50 (PANC-1; PANC-1): 0.178 µM
- IC (TGI) (SK-MEL-28; Homo sapiens): 0.915 µM
- GI50 (SK-MEL-28): 0.0546 µM
- CC50 (SK-MEL-28; human): 2.77 µM
- LC50 (concentration giving 50% net cell killing) [1]: 0.0826 µM
- GI50 (H-MEC-1): 0.0197 µM
- IC (TGI) (H-MEC-1): 0.0403 µM
- IC (TGI) (SK-BR-3): 0.689 µM
- CC50 (SK-BR-3): 4.03 µM
- GI50 (SK-BR-3): 0.228 µM
- GI50 (IGROV-ET): 0.192 µM
- IC (TGI) (IGROV-ET): 0.855 µM
- CC50 (IGROV-ET): 5.45 µM

Structure (SMILES): COc1cc(-c2c3n(c4c(=O)oc5cc(OC(=O)[C@@H](N)C(C)C)c(OC)cc5c24)CCc2cc(OC(=O)[C@@H](N)C(C)C)c(OC)cc2-3)ccc1OC(=O)[C@@H](N)C(C)C [Compound 37]
- GI50 (DU-145; DU-145): 0.0677 µM
- TGI DU-145 (DU-145; DU-145): 1.55E−06 Molar
- CC50 (DU-145; Homo sapiens, DU-145, read-out: LC50 DU-145, DU-145, cell killing (cytotoxic effect)): 5.62 µM
- CC50 (LoVo): 10.8 µM
- GI50 (LoVo): 1.79 µM
- IC (TGI) (LoVo): 4.4 µM
- IC (TGI) (K-562; Homo sapiens, K562, K-562): 1.97 µM
- CC50 (K-562; Homo sapiens): 7.53 µM
- GI50 (K-562; K-562): 0.0124 µM
- GI50 (LoVo-Dox): 2.1 µM
- IC (TGI) (LoVo-Dox): 4.6 µM
- CC50 (LoVo-Dox): 10.1 µM
- GI50 (A-549; Homo sapiens, A549, A-549): 1.72 µM
- IC (TGI) (A-549; Homo sapiens, A549, A-549): 3.8 µM
- CC50 (A-549; Homo sapiens): 8.38 µM
- GI50 (SKOV-3): 1.62 µM
- LC50 (concentration causing 50% net cell killing) (SKOV-3): 7.87 µM
- IC (TGI) (SKOV-3): 3.58 µM
- CC50 (IGROV; Homo sapiens, IGROV, read-out: LC50 IGROV, IGROV, cell killing (cytotoxic effect)): 5.89 µM
- GI50 (IGROV; IGROV): 0.577 µM
- TGI IGROV (IGROV; IGROV, total growth inhibition (cytostatic effect)): 2.17E−06 Molar
- GI50 (HT-29): 0.0912 µM
- IC (TGI) (HT-29): 2 µM
- CC50 (HT-29): 10.9 µM
- GI50 (LNCaP): 0.593 µM
- IC (TGI) (LNCaP): 2.18 µM
- CC50 (LNCaP): 5.05 µM
- GI50 (PANC-1; Homo sapiens, PANC-1, PANC-1): 2.15 µM
- IC (TGI) (PANC-1; Homo sapiens, PANC-1, PANC-1): 11 µM
- CC50 (PANC-1; Homo sapiens): 11 µM
- IC (TGI) (SK-MEL-28; Homo sapiens): 2.68 µM
- CC50 (SK-MEL-28; Homo sapiens, SK-MEL-28, read-out: LC50 MEL-28, MEL-28, cell killing (cytotoxic effect)): 7.95 µM
- GI50 (SK-MEL-28): 0.623 µM
- LC50 (concentration giving 50% net cell killing) [1]: 4.73 µM
- GI50 (H-MEC-1): 0.0974 µM
- IC (TGI) (H-MEC-1): 1.26 µM
- IC (TGI) (SK-BR-3): 2.12 µM
- CC50 (SK-BR-3): 10.6 µM
- GI50 (SK-BR-3): 0.0576 µM
- GI50 (IGROV-ET): 0.359 µM
- IC (TGI) (IGROV-ET): 2.11 µM
- CC50 (IGROV-ET): 8.04 µM
